{"source": "patent US20090182040A1", "about": "“Method of Preventing or Reducing Insecticidal Resistance” (BASF SE, priority 2006, published 2009)", "test_system": "adult pollen beetles with resistance against pyrethroids", "experiment": "Field trial on a commercial oilseed rape field: spray treatment, count of living adult pollen beetles", "type": "in vivo, Meligethes aeneus", "protocol": "Experiments were carried out on a commercial oilseed rape field location previously confirmed to have adult pollen beetles with resistance against pyrethroids. The experiments were carried out according the GEP settings for field trial set up and corresponding assessment of the treatments. The lay-out was a standard randomized block de-sign with 4 replicates. The different treatments (see Table 1 below) were prepared by diluting the respective products in water by well homogenized standard stirring in order to spray the four replicates at a spray volume of 300 to 400 liter per ha. The products used were the commercial formulation Fastac® OESC (containing 100 g per liter alpha-cypermethrin) and an experimental liquid formulation (containing 303.5 g PBO on a weight per weight basis). The three combinations of Fastac® OESC and the PBO containing liquid formulation in the Table 1 below were made as a tank mix of a standard rate of Fastac® OESC and a varying rate for the PBO containing formulation. The treatments were sprayed on the plants and the adult pollen beetles present on the plant by means of a knapsack sprayer at standard air pressure. The treatments were applied shortly after each other by appropriate rinsing in between according the GEP standard procedure. The development growth stage of the oilseed rape according to the BBCH code at the time of the treatment was 50 to 59 (the abbreviation “BBCH” stands for the Biologische Bundesanstalt, Bundessortenamt and Chemische Industrie). Shortly before the treatment the present adult pollen beetles were assessed in counting the number of adult pollen beetles present on 50 inflorescences—randomly taken—in each of the replicates. The total number of adult pollen beetles on the 4 replicates was then divided by 4 to give the average number of living adult pollen beetles per 50 inflorescenses, mentioned in the Table 1 below. The same procedure was followed respectively 3 and 6 days after the treatment (DAT).", "data": [{"smiles": "CC1(C)C(C=C(Cl)Cl)C1C(=O)OC(C#N)c1cccc(Oc2ccccc2)c1", "note": "(stereo not drawn) [alpha-cypermethrin]", "values": [{"measurement": "Average number of living adult pollen beetles per 50 inflorescenses", "setting": "alpha-cypermethrin 7.5 g a.i./ha, 0 DAT (count shortly before treatment), oilseed rape field, 4 replicates", "value": 343}, {"measurement": "Average number of living adult pollen beetles per 50 inflorescenses", "setting": "alpha-cypermethrin 7.5 g a.i./ha, 3 DAT", "value": 119}, {"measurement": "Average number of living adult pollen beetles per 50 inflorescenses", "setting": "alpha-cypermethrin 7.5 g a.i./ha, 6 DAT", "value": 75}, {"measurement": "Average number of living adult pollen beetles per 50 inflorescenses", "setting": "alpha-cypermethrin 12.5 g a.i./ha, 0 DAT (count shortly before treatment)", "value": 352}, {"measurement": "Average number of living adult pollen beetles per 50 inflorescenses", "setting": "alpha-cypermethrin 12.5 g a.i./ha, 3 DAT", "value": 116}, {"measurement": "Average number of living adult pollen beetles per 50 inflorescenses", "setting": "alpha-cypermethrin 12.5 g a.i./ha, 6 DAT", "value": 79}]}]}
